Read-outs that look alike come from different tables or passages of the source. Each block holds one molecule with its values, some of them ahead of it.
Legend:
Type in all cases: physicochemical
[1] = Dynamic vapor sorption (DVS), hygroscopicity; conditions: for Maximum sorption / Hygroscopicity (0-40% RH) / Hygroscopicity (0-90% RH) / Change in mass, Desorption / Change in mass, Sorption / Change in mass, Hysteresis: DVS; for Maximum sorption / Hygroscopicity (0-40% RH) / Hygroscopicity (0-90% RH): 25° C.; for Hygroscopicity; form change: form change after DVS
Method: Dynamic vapor sorption (“DVS”) was performed at 25° C., using approx 10-15 mg of sample and N2 gas at a flow rate of 200 mL/min, dm/dt=0.01% min, minimum dm/dt stability duration of 10 min, max equilibration time of 180 min, drying at 0% RH for 120 min, scanning from 0% RH to 90% RH to 0% RH with a step size of 10% RH.
Total cycling time varied, but in all cases was about 200-250 min.

[2] = Solubility in physiologically relevant solutions (SGF, FaSSIF, FeSSIF); conditions: 25±0.5° C.; for solubility at 24 h: 25 °C, thermodynamic from solid
Method: Solubility of the free base 1 and the selected salts 8, 9, 10, and 11 in physiologically relevant solutions were examined. For each material, aliquots were added to 2 ml vials containing 500 uL of either SGF, FaSSIF, or FeSSIF, which were then sealed. The mixtures were kept shaking by thermomixer at 700 rpm, 25±0.5° C. for 24 h to facilitate the dissolution and then centrifuged by 96-well plates at 3000 rpm for 2 min. The filter liquors were diluted with diluents (ACN/water, 50/50) and analyzed by HPLC.

[3] = Stability (50° C., 40° C./75% RH, light; 1 week); conditions: for XRPD change? / purity: bulk, 1 week; for initial purity: initial (before storage)
Method: The stability of the free base 1 and the selected salts 8, 9, 10, and 11 was evaluated. For each material, aliquots were set up at each of conditions (50° C., 40° C./75% RH, light) at given time points (initial and 1 week). PXRD diffractograms of the hydrogen fumarate salt 11 is shown in FIG. 17, with trace (a) showing the initial salt, trace (b) showing the salt after light treatment, trace (c) showing the salt after storage at 40° C. and 75% relative humidity for 1 week, and (d) showing the salt after storage at 50° C. for 1 week.

[4] = simulated gastric fluid, SGF, read-out: Solubility SGF Conc
[5] = FaSSIF, read-out: Solubility FaSSIF Conc
[6] = FeSSIF, read-out: Solubility FeSSIF Conc

Maximum sorption [1]: 0.60%
Hygroscopicity (0-40% RH) [1]: 0.17%
Hygroscopicity (0-90% RH) [1]: 0.6%
Change in mass, Desorption ([1]; Target % P/P0 0.0): 0.0373%
Change in mass, Sorption ([1]; Target % P/P0 0.0): 0.0000%
Change in mass, Desorption ([1]; Target % P/P0 10.0): 0.0913%
Change in mass, Hysteresis ([1]; Target % P/P0 10.0): 0.0426%
Change in mass, Sorption ([1]; Target % P/P0 10.0): 0.0487%
Change in mass, Desorption ([1]; Target % P/P0 20.0): 0.1293%
Change in mass, Hysteresis ([1]; Target % P/P0 20.0): 0.0411%
Change in mass, Sorption ([1]; Target % P/P0 20.0): 0.0882%
Change in mass, Desorption ([1]; Target % P/P0 30.0): 0.1757%
Change in mass, Hysteresis ([1]; Target % P/P0 30.0): 0.0502%
Change in mass, Sorption ([1]; Target % P/P0 30.0): 0.1255%
Change in mass, Desorption ([1]; Target % P/P0 40.0): 0.2145%
Change in mass, Hysteresis ([1]; Target % P/P0 40.0): 0.0418%
Change in mass, Sorption ([1]; Target % P/P0 40.0): 0.1727%
Change in mass, Desorption ([1]; Target % P/P0 50.0): 0.2609%
Change in mass, Hysteresis ([1]; Target % P/P0 50.0): 0.0418%
Change in mass, Sorption ([1]; Target % P/P0 50.0): 0.2191%
Change in mass, Desorption ([1]; Target % P/P0 60.0): 0.3119%
Change in mass, Hysteresis ([1]; Target % P/P0 60.0): 0.0388%
Change in mass, Sorption ([1]; Target % P/P0 60.0): 0.2731%
Change in mass, Desorption ([1]; Target % P/P0 70.0): 0.3743%
Change in mass, Hysteresis ([1]; Target % P/P0 70.0): 0.0320%
Change in mass, Sorption ([1]; Target % P/P0 70.0): 0.3423%
Change in mass, Desorption ([1]; Target % P/P0 80.0): 0.4565%
Change in mass, Hysteresis ([1]; Target % P/P0 80.0): 0.0228%
Change in mass, Sorption ([1]; Target % P/P0 80.0): 0.4336%
Change in mass, Desorption ([1]; Target % P/P0 90.0): 0.6040%
Change in mass, Sorption ([1]; Target % P/P0 90.0): 0.6040%
Hygroscopicity; form change [1]: no change
solubility at 24 h [2, 4]: 6330 µg/mL
solubility at 24 h [2, 5]: 113 µg/mL
solubility at 24 h [2, 6]: 773 µg/mL
FaSSIF pH after 24 h ([2]; FaSSIF): 5.53
FeSSIF pH after 24 h ([2]; FeSSIF): 4.86
SGF pH after 24 h ([2]; SGF): 3.26
XRPD change? ([3]; 40° C., 75% RH): no
purity ([3]; 40° C., 75% RH): 99.41%
XRPD change? ([3]; 50° C.): no
purity ([3]; 50° C.): 98.91%
initial purity [3]: 99.58%
XRPD change? ([3]; light): no
purity ([3]; light): 99.44%
SMILES: CC(C)c1nc(-c2cnc(N)c(OC(F)(F)F)c2)cn1C12CC(N3CCOCC3)(C1)C2.O=C(O)CC(O)(CC(=O)O)C(=O)O [Example 8, 5-(2-isopropyl-1-(3-morpholinobicyclo[1.1.1]pentan-1-yl)-1H-imidazol-4-yl)-3-(trifluoromethoxy)pyridin-2-amine dihydrogen citrate]

Maximum sorption [1]: 0.27%
Hygroscopicity (0-40% RH) [1]: 0.07%
Hygroscopicity (0-90% RH) [1]: 0.27%
Change in mass, Desorption ([1]; Target % P/P0 0.0): −0.0030%
Change in mass, Sorption ([1]; Target % P/P0 0.0): 0.0000%
Change in mass, Desorption ([1]; Target % P/P0 10.0): 0.0196%
Change in mass, Hysteresis ([1]; Target % P/P0 10.0): 0.0015%
Change in mass, Sorption ([1]; Target % P/P0 10.0): 0.0181%
Change in mass, Desorption ([1]; Target % P/P0 20.0): 0.0354%
Change in mass, Hysteresis ([1]; Target % P/P0 20.0): 0.0038%
Change in mass, Sorption ([1]; Target % P/P0 20.0): 0.0317%
Change in mass, Desorption ([1]; Target % P/P0 30.0): 0.0573%
Change in mass, Hysteresis ([1]; Target % P/P0 30.0): 0.0151%
Change in mass, Sorption ([1]; Target % P/P0 30.0): 0.0422%
Change in mass, Desorption ([1]; Target % P/P0 40.0): 0.0747%
Change in mass, Hysteresis ([1]; Target % P/P0 40.0): 0.0090%
Change in mass, Sorption ([1]; Target % P/P0 40.0): 0.0656%
Change in mass, Desorption ([1]; Target % P/P0 50.0): 0.0950%
Change in mass, Hysteresis ([1]; Target % P/P0 50.0): 0.0136%
Change in mass, Sorption ([1]; Target % P/P0 50.0): 0.0814%
Change in mass, Desorption ([1]; Target % P/P0 60.0): 0.1199%
Change in mass, Hysteresis ([1]; Target % P/P0 60.0): 0.0158%
Change in mass, Sorption ([1]; Target % P/P0 60.0): 0.1041%
Change in mass, Desorption ([1]; Target % P/P0 70.0): 0.1516%
Change in mass, Hysteresis ([1]; Target % P/P0 70.0): 0.0189%
Change in mass, Sorption ([1]; Target % P/P0 70.0): 0.1327%
Change in mass, Desorption ([1]; Target % P/P0 80.0): 0.1938%
Change in mass, Hysteresis ([1]; Target % P/P0 80.0): 0.0151%
Change in mass, Sorption ([1]; Target % P/P0 80.0): 0.1787%
Change in mass, Desorption ([1]; Target % P/P0 90.0): 0.2655%
Change in mass, Sorption ([1]; Target % P/P0 90.0): 0.2655%
Hygroscopicity; form change [1]: no change
solubility at 24 h [2, 4]: 13400 µg/mL
solubility at 24 h [2, 5]: 113 µg/mL
solubility at 24 h [2, 6]: 565 µg/mL
FaSSIF pH after 24 h ([2]; FaSSIF): 5.65
FeSSIF pH after 24 h ([2]; FeSSIF): 4.90
SGF pH after 24 h ([2]; SGF): 3.26
XRPD change? ([3]; 40° C., 75% RH): no
purity ([3]; 40° C., 75% RH): 99.87%
XRPD change? ([3]; 50° C.): no
purity ([3]; 50° C.): 99.89%
initial purity [3]: 99.83%
XRPD change? ([3]; light): no
purity ([3]; light): 99.79%
SMILES: CC(C)c1nc(-c2cnc(N)c(OC(F)(F)F)c2)cn1C12CC(N3CCOCC3)(C1)C2.O=C(O)/C=C\C(=O)O [Example 9, 5-(2-isopropyl-1-(3-morpholinobicyclo[1.1.1]pentan-1-yl)-1H-imidazol-4-yl)-3-(trifluoromethoxy)pyridin-2-amine hydrogen maleate]

Maximum sorption [1]: 0.30%
Hygroscopicity (0-40% RH) [1]: 0.05%
Hygroscopicity (0-90% RH) [1]: 0.3%
Change in mass, Desorption ([1]; Target % P/P0 0.0): 0.0514%
Change in mass, Sorption ([1]; Target % P/P0 0.0): 0.0000%
Change in mass, Desorption ([1]; Target % P/P0 10.0): 0.0647%
Change in mass, Hysteresis ([1]; Target % P/P0 10.0): 0.0496%
Change in mass, Sorption ([1]; Target % P/P0 10.0): 0.0151%
Change in mass, Desorption ([1]; Target % P/P0 20.0): 0.0727%
Change in mass, Hysteresis ([1]; Target % P/P0 20.0): 0.0487%
Change in mass, Sorption ([1]; Target % P/P0 20.0): 0.0239%
Change in mass, Desorption ([1]; Target % P/P0 30.0): 0.0930%
Change in mass, Hysteresis ([1]; Target % P/P0 30.0): 0.0611%
Change in mass, Sorption ([1]; Target % P/P0 30.0): 0.0319%
Change in mass, Desorption ([1]; Target % P/P0 40.0): 0.1081%
Change in mass, Hysteresis ([1]; Target % P/P0 40.0): 0.0549%
Change in mass, Sorption ([1]; Target % P/P0 40.0): 0.0532%
Change in mass, Desorption ([1]; Target % P/P0 50.0): 0.1267%
Change in mass, Hysteresis ([1]; Target % P/P0 50.0): 0.0541%
Change in mass, Sorption ([1]; Target % P/P0 50.0): 0.0727%
Change in mass, Desorption ([1]; Target % P/P0 60.0): 0.1489%
Change in mass, Hysteresis ([1]; Target % P/P0 60.0): 0.0514%
Change in mass, Sorption ([1]; Target % P/P0 60.0): 0.0975%
Change in mass, Desorption ([1]; Target % P/P0 70.0): 0.1790%
Change in mass, Hysteresis ([1]; Target % P/P0 70.0): 0.0523%
Change in mass, Sorption ([1]; Target % P/P0 70.0): 0.1267%
Change in mass, Desorption ([1]; Target % P/P0 80.0): 0.2233%
Change in mass, Hysteresis ([1]; Target % P/P0 80.0): 0.0292%
Change in mass, Sorption ([1]; Target % P/P0 80.0): 0.1941%
Change in mass, Desorption ([1]; Target % P/P0 90.0): 0.3013%
Change in mass, Sorption ([1]; Target % P/P0 90.0): 0.3013%
Hygroscopicity; form change [1]: no change
solubility at 24 h [2, 4]: 7080 µg/mL
solubility at 24 h [2, 5]: 72.2 µg/mL
solubility at 24 h [2, 6]: 642 µg/mL
FaSSIF pH after 24 h ([2]; FaSSIF): 5.92
FeSSIF pH after 24 h ([2]; FeSSIF): 4.88
SGF pH after 24 h ([2]; SGF): 3.71
XRPD change? ([3]; 40° C., 75% RH): no
purity ([3]; 40° C., 75% RH): 100%
XRPD change? ([3]; 50° C.): no
purity ([3]; 50° C.): 100%
initial purity [3]: 99.74%
XRPD change? ([3]; light): no (2)
purity ([3]; light): 99.74%
SMILES: CC(C)c1nc(-c2cnc(N)c(OC(F)(F)F)c2)cn1C12CC(N3CCOCC3)(C1)C2.O=C(O)CCC(=O)O [Example 10, 5-(2-isopropyl-1-(3-morpholinobicyclo[1.1.1]pentan-1-yl)-1H-imidazol-4-yl)-3-(trifluoromethoxy)pyridin-2-amine hydrogen succinate]
